Patent publication US20100203647A1, “Chemical Reporters of Protein Acylation” (THE ROCKEFELLER UNIVERSITY, priority 2008, published 2010)
“Also recorded” adds a separate entry of the source. Blank lines part the entries; values can stand above or below the compound they belong to.

Key:
Jurkat cells [1] = assay: Competition of metabolic labeling with naturally occurring fatty acids; settings: 2 hours, myristic acid 0, 10 or 100 μM, palmitic acid 0, 100 or 200 μM
Fyn [2] = molecular target: T1, Fyn (Homo sapiens, UniProt P06241, C3S/C6S); assay: Alkynyl-fatty acid labeling of wild type, G2A and C3,6S Fyn overexpressed in HeLa cells, immunoprecipitation; assay type: cell-based; settings: 20 μM reporter
T1 construct: expressed in transfected cells; host or cells: HeLa cells
T1 sequence (P06241 2-537 C3S/C6S): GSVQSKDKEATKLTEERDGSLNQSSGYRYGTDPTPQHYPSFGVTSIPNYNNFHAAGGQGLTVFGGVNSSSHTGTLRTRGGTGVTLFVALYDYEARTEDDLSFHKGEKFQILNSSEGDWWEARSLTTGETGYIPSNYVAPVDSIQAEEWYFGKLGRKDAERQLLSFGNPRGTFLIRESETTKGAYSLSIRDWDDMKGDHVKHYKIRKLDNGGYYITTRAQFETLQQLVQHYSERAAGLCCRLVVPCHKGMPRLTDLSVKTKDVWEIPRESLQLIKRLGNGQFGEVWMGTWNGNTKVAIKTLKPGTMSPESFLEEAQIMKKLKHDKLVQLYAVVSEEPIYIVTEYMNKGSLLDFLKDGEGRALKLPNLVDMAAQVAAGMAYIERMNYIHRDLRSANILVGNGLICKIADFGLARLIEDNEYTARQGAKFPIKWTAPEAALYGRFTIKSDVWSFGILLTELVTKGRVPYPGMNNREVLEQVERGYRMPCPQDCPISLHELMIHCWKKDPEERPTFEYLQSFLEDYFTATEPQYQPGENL
Procedure: (§1) HeLa cells were grown in 10 cm dishes to approximately 90% confluence in DMEM, supplemented with 10% FBS, and transfected with wildtype, G2A or C3,6S Fyn constructs using Lipofectamine 2000 (Invitrogen). The human Fyn constructs, wild type and mutant Fyn cDNAs cloned into eukaryotic expression vector pCMV5, were gifts from Dr. Marilyn Resh, Memorial Sloan-Kettering Cancer Center. The following day, cells were metabolically labeled with alkynyl-fatty acid analogs as described above.
(§2) Cell lysates were collected after centrifuging at 1,000 g for 5 minutes at 4° C. to remove cell debris. Protein concentration was determined by the BCA assay. Typical lysate protein concentration obtained: 6-8 mg/mL. LAT, Lck and Ras proteins were immunoprecipitated from 200 μg Jurkat cell lysate using the following antibodies at recommended concentrations: mouse anti-Lck (p56lck) monoclonal (Clone 3A5, Thermo Scientific, Waltham, Mass., USA), rat anti-v-H-ras (Ab-1) monoclonal (Y13-259 agarose conjugate, Calbiochem, San Diego, Calif., USA), and rabbit anti-LAT polyclonal (Millipore, Billerica, Mass., USA). A rabbit anti-Fyn polyclonal (Millipore, Billerica, Mass., USA) was used to immunoprecipitate wild type and mutant Fyn proteins from transfected and metabolically labeled HeLa cells. 25 μL of packed protein A-agarose beads (Roche, Mannheim, Germany) was used per sample.

Fyn [3] = molecular target: T2, Fyn (Homo sapiens, UniProt P06241, G2A); assay: as above; assay type: cell-based; settings: 20 μM reporter
T2 construct: expressed in transfected cells; host or cells: HeLa cells
T2 sequence (P06241 2-537 G2A): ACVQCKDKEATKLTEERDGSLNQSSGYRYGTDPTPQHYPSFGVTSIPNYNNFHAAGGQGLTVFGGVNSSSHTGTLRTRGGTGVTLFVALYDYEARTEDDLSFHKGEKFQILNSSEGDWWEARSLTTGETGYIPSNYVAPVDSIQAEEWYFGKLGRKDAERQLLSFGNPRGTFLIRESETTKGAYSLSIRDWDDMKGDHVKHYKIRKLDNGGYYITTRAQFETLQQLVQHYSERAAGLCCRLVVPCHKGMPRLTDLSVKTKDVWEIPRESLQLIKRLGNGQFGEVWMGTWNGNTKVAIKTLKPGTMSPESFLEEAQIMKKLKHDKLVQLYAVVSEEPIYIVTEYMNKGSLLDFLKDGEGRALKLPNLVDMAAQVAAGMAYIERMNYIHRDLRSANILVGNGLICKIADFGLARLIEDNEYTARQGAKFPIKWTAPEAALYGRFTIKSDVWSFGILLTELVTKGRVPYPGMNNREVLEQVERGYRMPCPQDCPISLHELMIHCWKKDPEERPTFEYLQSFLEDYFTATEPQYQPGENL
Procedure: as §1, §2

Fyn [4] = molecular target: T3, Fyn (Homo sapiens, UniProt P06241); assay: as above; assay type: cell-based; settings: 20 μM reporter
T3 construct: expressed in transfected cells; host or cells: HeLa cells
T3 sequence (P06241 2-537): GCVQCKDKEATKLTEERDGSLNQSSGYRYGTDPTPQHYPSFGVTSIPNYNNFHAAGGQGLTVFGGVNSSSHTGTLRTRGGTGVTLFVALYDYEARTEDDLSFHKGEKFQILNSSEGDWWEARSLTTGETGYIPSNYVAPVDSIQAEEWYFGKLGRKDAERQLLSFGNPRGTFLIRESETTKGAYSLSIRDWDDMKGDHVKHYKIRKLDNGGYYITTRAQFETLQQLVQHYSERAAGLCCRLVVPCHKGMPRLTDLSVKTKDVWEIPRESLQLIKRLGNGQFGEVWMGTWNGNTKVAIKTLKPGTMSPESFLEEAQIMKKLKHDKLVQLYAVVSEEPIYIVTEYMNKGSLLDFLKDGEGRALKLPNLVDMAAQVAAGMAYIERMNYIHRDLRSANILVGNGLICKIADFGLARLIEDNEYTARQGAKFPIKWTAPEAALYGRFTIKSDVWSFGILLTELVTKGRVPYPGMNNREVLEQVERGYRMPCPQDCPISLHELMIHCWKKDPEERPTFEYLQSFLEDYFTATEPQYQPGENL
Procedure: as §1, §2

M. smegmatis = assay: Labeling of acylated proteins in bacterial cells with alkynyl-chemical reporters; assay type: cell-based
Jurkat cells [5] = assay: Metabolic labeling with inhibitors; settings: for class of acylated proteins targeted by the reporter: from CHX and NH2OH sensitivity in Jurkat cell lysates
[6] = In vivo labeling of acylated proteins after intraperitoneal injection of alkynyl-chemical reporters; settings: mice, one hour, splenocytes, liver
Procedure: (§3) Livers were harvested and incubated with Liberase 3 Blendzyme™ (Roche, Mannheim, Germany) at 37° C. for 30 minutes+ and homogenized prior to filtration with 0.4 μm cell strainers. Splenocytes were prepared by manual disruption of spleens using forceps. Liver and splenocyte preparations were subjected to red blood cell lysis using ACK lysis buffer.
as §3, with “Livers and kidney” for “Livers”, “Blendzyme” for “Blendzyme™”, “minutes” for “minutes+”, “Liver, kidney” for “Liver”

Lck and LAT = assay: Hydroxylamine cleavage of S-acylated proteins (in-gel), immunoprecipitated Lck and LAT; assay type: cell-based, human; settings: 1 M NH2OH pH 7.4; alk-16 on Lck and LAT, alk-12 on Lck
Procedure: as §2
The gel was finally washed with deionized water (2×5 minutes) and scanned for the post-hydroxylamine treatment fluorescence.

Lck = assay: Pulse-chase tandem imaging of palmitate turnover on Lck in Jurkat T cells; assay type: cell-based, human; settings: for effect of chemical inhibitor on palmitate turnover on Lck: added during the chase, 20 μM MAFP, 100 μM 2BP; for decay of reporter signal on Lck with excess myristate as the chase additive: over 6 hours
Jurkat T cells [7] = assay: Proteomic analysis and modification site mapping of alkynyl-acetate analog-labeled proteins; assay type: cell-based, human; settings: for qualitative comparison among alkynyl-acetate analogs as chemical reporter for protein acetylation: proteomics data and in vitro p300-acylation studies
Jurkat T cells [8] = assay: Metabolic labeling of Jurkat T cells with alkynyl-acetate analogs, CuAAC with az-Rho, in-gel fluorescence scanning; settings: metabolically-labeled Jurkat T cells
[9] = Absorbance and fluorescence studies of clickable CyFur dyes; assay type: physicochemical; settings: for εmax^b (M^−1cm^−1): in MeOH, at 470 nm for az-CyFur-1, az-CyFur-2 and at 580 nm for alk-CyFur, averaged over three independent experiments; for ΦF^c: quantum yield referenced against cresyl violet, alk-CyFur excited at 580 nm, az-CyFur-1 and az-CyFur-2 at 470 nm; for λmax^a (nm) (first column) / λmax^a (nm) (second column): spectra obtained in DMSO
Procedure: Absorbance and fluorescence studies. Absorption spectra and fluorescence data were collected on SpectraMax M2 multi-detection reader (Molecular Devices). The spectra in solution were obtained at 25° C. using a quartz cuvette with a path length of 1 cm. Fluorescence quantum yields (ΦF) of CyFur dyes were determined against cresyl violet (ΦF=0.54 in methanol).

Jurkat T cell lysates = assay: Streptavidin affinity enrichment and Na2S2O4 elution of azido-chemical reporter labeled Jurkat T cell lysates reacted with alk-diazo-biotin; assay type: cell-based, human; settings: Coomassie staining of polypeptides eluted from streptavidin beads
[10] = tested on: metabolic incorporation of chemical reporters; assay: Effect of inhibitors/additives on metabolic incorporation of alkynyl-chemical reporters; assay type: cell-based
[11] = tested on: acetylated proteins such as histones; assay: Metabolic labeling of acetylated proteins with very short chain alkynyl-chemical reporters, in-gel fluorescence; assay type: cell-based, human
p300 = molecular target: T4, p300 (Homo sapiens, UniProt Q09472); assay: MALDI-TOF analysis of p300-catalyzed acylation of histone H3 peptide in vitro; assay type: biochemical; settings: 20 μM analog, MS analysis
T4 construct: made in house; host or cells: SF9 insect cells, baculovirus
T4 sequence (Q09472 whole entry): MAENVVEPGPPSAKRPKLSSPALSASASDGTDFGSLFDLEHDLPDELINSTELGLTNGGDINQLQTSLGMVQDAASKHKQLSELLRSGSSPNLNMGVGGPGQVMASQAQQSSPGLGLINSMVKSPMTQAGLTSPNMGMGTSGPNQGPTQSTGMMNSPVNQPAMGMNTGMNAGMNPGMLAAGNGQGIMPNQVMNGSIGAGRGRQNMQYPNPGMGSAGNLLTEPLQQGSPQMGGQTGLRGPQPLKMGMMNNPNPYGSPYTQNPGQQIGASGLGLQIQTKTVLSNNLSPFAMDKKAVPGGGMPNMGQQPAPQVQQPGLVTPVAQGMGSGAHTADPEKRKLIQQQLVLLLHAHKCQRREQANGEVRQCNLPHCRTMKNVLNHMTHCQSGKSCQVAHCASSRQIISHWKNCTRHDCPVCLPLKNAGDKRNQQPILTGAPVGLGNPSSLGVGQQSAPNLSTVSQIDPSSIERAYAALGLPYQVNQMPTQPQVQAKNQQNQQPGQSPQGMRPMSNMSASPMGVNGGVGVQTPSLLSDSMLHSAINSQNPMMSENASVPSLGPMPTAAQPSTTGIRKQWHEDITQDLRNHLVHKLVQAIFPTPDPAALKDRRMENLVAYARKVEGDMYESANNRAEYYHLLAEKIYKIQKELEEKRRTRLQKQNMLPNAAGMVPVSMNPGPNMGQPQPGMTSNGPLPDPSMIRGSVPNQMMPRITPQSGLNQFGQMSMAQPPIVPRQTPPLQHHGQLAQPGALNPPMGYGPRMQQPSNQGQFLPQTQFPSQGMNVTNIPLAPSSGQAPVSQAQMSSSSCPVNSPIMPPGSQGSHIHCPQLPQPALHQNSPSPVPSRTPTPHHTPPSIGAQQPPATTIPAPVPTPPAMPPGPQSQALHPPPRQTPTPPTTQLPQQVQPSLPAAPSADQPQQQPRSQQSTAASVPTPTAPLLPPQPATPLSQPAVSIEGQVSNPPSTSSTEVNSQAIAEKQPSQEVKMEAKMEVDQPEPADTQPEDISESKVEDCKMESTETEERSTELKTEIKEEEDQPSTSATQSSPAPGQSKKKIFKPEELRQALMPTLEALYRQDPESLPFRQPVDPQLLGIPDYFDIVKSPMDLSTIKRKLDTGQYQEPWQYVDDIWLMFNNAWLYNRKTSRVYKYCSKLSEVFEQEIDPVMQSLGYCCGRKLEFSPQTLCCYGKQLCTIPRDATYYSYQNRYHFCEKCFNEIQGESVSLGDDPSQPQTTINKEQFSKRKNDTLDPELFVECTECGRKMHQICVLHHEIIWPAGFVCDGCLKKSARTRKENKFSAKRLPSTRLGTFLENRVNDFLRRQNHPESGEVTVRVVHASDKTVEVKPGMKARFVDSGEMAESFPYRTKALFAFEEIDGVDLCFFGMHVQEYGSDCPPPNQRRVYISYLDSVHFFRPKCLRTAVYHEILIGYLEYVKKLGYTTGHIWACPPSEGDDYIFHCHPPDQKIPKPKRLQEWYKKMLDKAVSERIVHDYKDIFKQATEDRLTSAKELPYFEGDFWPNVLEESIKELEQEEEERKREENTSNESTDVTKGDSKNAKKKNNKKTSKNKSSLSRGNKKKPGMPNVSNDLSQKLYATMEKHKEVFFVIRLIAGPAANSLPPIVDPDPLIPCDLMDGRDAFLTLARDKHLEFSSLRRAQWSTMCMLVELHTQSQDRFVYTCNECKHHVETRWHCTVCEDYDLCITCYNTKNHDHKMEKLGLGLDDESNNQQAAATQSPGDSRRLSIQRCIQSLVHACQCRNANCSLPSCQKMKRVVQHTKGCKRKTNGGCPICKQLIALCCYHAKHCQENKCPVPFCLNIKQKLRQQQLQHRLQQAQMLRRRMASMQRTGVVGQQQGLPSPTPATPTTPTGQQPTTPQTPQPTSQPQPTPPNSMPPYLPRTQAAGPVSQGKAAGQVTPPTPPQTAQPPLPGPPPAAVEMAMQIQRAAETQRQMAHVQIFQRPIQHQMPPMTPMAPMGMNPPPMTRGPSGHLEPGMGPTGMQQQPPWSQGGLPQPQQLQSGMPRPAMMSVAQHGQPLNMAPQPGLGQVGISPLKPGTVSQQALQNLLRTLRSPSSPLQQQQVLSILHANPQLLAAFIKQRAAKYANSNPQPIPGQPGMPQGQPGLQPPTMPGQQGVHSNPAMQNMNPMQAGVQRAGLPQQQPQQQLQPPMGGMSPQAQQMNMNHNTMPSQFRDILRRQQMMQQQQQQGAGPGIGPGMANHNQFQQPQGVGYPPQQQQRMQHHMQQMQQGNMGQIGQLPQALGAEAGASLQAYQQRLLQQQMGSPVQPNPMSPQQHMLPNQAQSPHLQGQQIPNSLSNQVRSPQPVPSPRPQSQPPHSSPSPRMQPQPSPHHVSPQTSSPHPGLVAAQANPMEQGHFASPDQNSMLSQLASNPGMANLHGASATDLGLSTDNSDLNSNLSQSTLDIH
Procedure: Cells were lysed in lysis buffer (20 mM Tris, pH 7.5, 500 mM NaCl, 4 mM MgCl2, 0.4 mM EDTA, 20% glycerol, 2 mM DTT, and supplemented with protease inhibitors). Clarified cell lysates were diluted to 300 mM NaCl, and NP-40 was added to 0.1% final concentration. Flag M2 agarose resin (Sigma) was added to the lysate and incubated for 4 hours at 4° C. […] Protein concentration and purity were estimated by comparison to BSA standards on SDS gels stained with Gelcode Blue stain (Pierce).

Structure (SMILES): CCCCCCCCCCCCCC(=O)O [myristic acid]
competition of alkynyl-fatty acid protein labeling (alk-12, alk-14, alk-16, 10 μM) (Jurkat cells [1]): alk-12 protein labeling is selectively blocked

Structure (SMILES): C#CCCCCCCCCCCCC(=O)O [alk-12, Tetradec-13-ynoic acid]
labeling of dual S-palmitoylation-deficient C3,6S mutant Fyn (Fyn [2]): efficiently labeled
labeling of N-myristoylation G2A-mutant Fyn (Fyn [3]): significantly reduced
fatty-acylation of wild-type Fyn (Fyn [4]): readily detected
labeling of proteins in bacterial cells (M. smegmatis): labeled distinct proteins
class of acylated proteins targeted by the reporter (Jurkat cells [5]): cotranslationally targets N-myristoylated proteins
profile of acylated proteins after in vivo labeling [6]: discrete profile of acylated proteins from splenocytes similar to ex vivo labeling
effect of in-gel NH2OH treatment on fluorescent signal of reporter-labeled protein (Lck and LAT): did not alter

Structure (SMILES): CCCCCCCCCCCCCCC(Br)C(=O)O (stereo not drawn) [2-BP, 2-bromopalmitate, reference compound]
effect of chemical inhibitor on palmitate turnover on Lck (Lck): decreased Lck depalmitoylation rate
effect of inhibitor on alkynyl-fatty acid protein labeling (alk-12, alk-14, alk-16, 20 μM) (Jurkat cells [5]; Jurkat cells, CHX 10 μM, HMA 1 mM, 2-BP 50 μM, 30 minutes pre-incubation): reduced protein labeling with alk-12, alk-14 and alk-16

Structure (SMILES): C#CCCCCCCCCCCCCCC(=O)O [alk-14, Hexadec-15-ynoic acid]
class of acylated proteins targeted by the reporter (Jurkat cells [5]): appears to represent a combination of alk-12 and alk-16 labeling

Structure (SMILES): O=S(=O)(F)Cc1ccccc1 [PMSF, phenylmethylsulfonyl fluoride, reference compound]
effect of chemical inhibitor on palmitate turnover on Lck (Lck): no apparent effect on the initial rate of palmitate removal

Structure (SMILES): C#CCCC(=O)[O-].[Na+] [Analog 5, sodium 4-pentynoate]
sites of metabolic incorporation (MS/MS of enriched peptides) (Jurkat T cells [7]; Jurkat T cell lysates): metabolically incorporated into known sites of lysine acetylation on histone H2B, H3 and H4
labeled proteins also identified by anti-acetyl-Lys proteomic studies (Jurkat T cells [7]; Jurkat T cells): 86%
number of labeled proteins identified (Jurkat T cells [7]; Jurkat T cells, three independent experiments): approximately 194
qualitative comparison among alkynyl-acetate analogs as chemical reporter for protein acetylation (Jurkat T cells [7]): optimal chemical reporter for detecting protein acetylation
labeling of known lysine-acetylated proteins (enriched core histones, immunoprecipitated histone H3) (Jurkat T cells [8]): specifically labeled

absorption (abs) maxima [9]: 580 nm
emission (em) maxima [9]: 640 nm
εmax^b (M^−1cm^−1) [9]: 33,933 M^−1cm^−1
ΦF^c [9]: 0.0147
λmax^a (nm) (first column) [9]: 580 nm
λmax^a (nm) (second column) [9]: 640 nm
Structure (SMILES): C#CCCNc1ccc(/C=C/C2=C(C#N)C(=C(C#N)C#N)OC2(C)C)cc1 [alk-CyFur, (E)-2-(4-(4-(but-3-ynylamino)styryl)-3-cyano-5,5-dimethylfuran-2(5H)-ylidene)malononitrile]

Structure (SMILES): [N-]=[N+]=NCCCCCCCCCCCC(=O)O [az-12, 12-azido-dodecanoic acid]
decay of reporter signal on Lck with excess myristate as the chase additive (Lck): No significant decay
proteins recovered from labeled cell lysates compared to control (-) (Jurkat T cell lysates): significantly greater amounts of proteins recovered

Structure (SMILES): CCCC(=O)O [butyric acid]
effect on labeling of acetylated proteins with alk-4 [10]: inhibited

Structure (SMILES): C#CCC(=O)[O-].[Na+] [Analog 4, sodium 3-butynoate]
labeling of known lysine-acetylated proteins (enriched core histones, immunoprecipitated histone H3) (Jurkat T cells [8]): specifically labeled

absorption (abs) maxima [9]: 470 nm
emission (em) maxima [9]: 580 nm
εmax^b (M^−1cm^−1) [9]: 20,533 M^−1cm^−1
ΦF^c [9]: 0.0067
λmax^a (nm) (first column) [9]: 470 nm
λmax^a (nm) (second column) [9]: 580 nm
Structure (SMILES): CC1(C)OC(=C(C#N)C#N)C(C#N)=C1/C=C/c1ccc(NC(=O)OCCN=[N+]=[N-])cc1 [az-CyFur-1]

Structure (SMILES): C#CCCCC(=O)[O-].[Na+] [Analog 6, sodium 5-hexynoate]
qualitative comparison among alkynyl-acetate analogs as chemical reporter for protein acetylation (Jurkat T cells [7]): may also target cellular fatty-acylated proteins
labeling of known lysine-acetylated proteins (enriched core histones, immunoprecipitated histone H3) (Jurkat T cells [8]): specifically labeled

Structure (SMILES): C#CCCCCCCCCCCCCCCCC(=O)O [alk-16, Octadec-17-ynoic acid]
decay of reporter signal on Lck with excess myristate as the chase additive (Lck): No significant decay
labeling of N-myristoylation G2A-mutant Fyn (Fyn [3]): undetectable
fatty-acylation of wild-type Fyn (Fyn [4]): readily detected
labeling of proteins in bacterial cells (M. smegmatis): labeled distinct proteins
class of acylated proteins targeted by the reporter (Jurkat cells [5]): preferentially labels S-acylated proteins
profile of acylated proteins after in vivo labeling [6]: did not reveal discrete profiles of acylated proteins in splenocytes or liver
effect of in-gel NH2OH treatment on fluorescent signal of reporter-labeled protein (Lck and LAT): reduced the fluorescent signal

Structure (SMILES): [N-]=[N+]=NCCCCCCCCCCCCCCC(=O)O [az-15, 15-azido-pentadecanoic acid]
proteins recovered from labeled cell lysates compared to control (-) (Jurkat T cell lysates): significantly greater amounts of proteins recovered

Structure (SMILES): C#CCCCC(=O)O [alk-4, hexa-5-ynoic acid]
labeling of proteins in bacterial cells (M. smegmatis): labeled distinct proteins
labeling of acetylated proteins [11]: found to label acetylated proteins such as histones
relative efficiency of labeling acetylated proteins among alk-2, alk-3, alk-4 [11]: most efficient labeling of acetylated proteins; also recorded: more efficient

Structure (SMILES): CCCCCCCCCCCCCCCC(=O)O [palmitic acid]
competition of alkynyl-fatty acid protein labeling (alk-12, alk-14, alk-16, 10 μM) (Jurkat cells [1]): alk-14 and alk-16 protein labeling is most effectively reduced

Structure (SMILES): C#CCCSCCNC(=O)CCNC(=O)[C@H](O)C(C)(C)COP(=O)(O)OP(=O)(O)OC[C@H]1O[C@@H](n2cnc3c(N)ncnc32)[C@H](O)[C@@H]1OP(=O)(O)O [Analog 1, 3-butynyl-CoA]
utilization as acyl-CoA donor for p300-catalyzed acylation of histone H3 peptide (p300): does not appear to be utilized efficiently by p300
utilization as acyl-CoA donor for p300-catalyzed acylation of histone H3 peptide (p300; listed as 3-butynyl-CoA): not efficiently utilized by p300 in vitro

Structure (SMILES): C#CCC(=O)O [alk-2, buta-3-ynoic acid]
labeling of proteins in bacterial cells (M. smegmatis): labeled distinct proteins
labeling of acetylated proteins [11]: found to label acetylated proteins such as histones
